Assay results: patent publication US12624122B2, “Affinity maturated TAG72 specific single chain antibodies” (H. Lee Moffitt Cancer Center and Research Institute, Inc., priority 2016, dated 2026)

What was measured:
Format in all cases: cell-based
[1] = system: programmed cell death ligand 1 (PDL1); experiment: tumor cell PDL1 surface expression
MCF-7 cells = experiment: flow cytometry apoptosis (annexin V and PI), MCF-7 cells with human CD8 T cells
Source text: (§1) FIGS. 5 to 96 are flow cytometry plots testing the disclosed bispecific antibodies. Table 1 summarizes flow cytometry results measuring apoptosis with annexin V and PI in gated populations of MCF-7 and MDA-231 cells treated with human CD8 T cells with bi-specific antibodies plus or minus the photosensitizing compound verteporfin.

MDA-231 cells = experiment: flow cytometry apoptosis (annexin V and PI), MDA-231 cells with human CD8 T cells
Source text: as §1

Substance: verteporfin [Vs]
- tumor cell PDL1 surface expression [1]: reduce tumor cell programmed cell death ligand 1 (PDL1) surface expression
- Control group (%) viable cells (MCF-7 cells; CD8 + Vs (1 μM)): (19) %
- Control group (%) viable cells (MCF-7 cells; CD8 + Vs (2 μM)): (13.3) %
- Control group (%) viable cells (MCF-7 cells; CD8 + Vs (5 μM)): (7.51) %
- Control group (%) viable cells (MDA-231 cells; CD8 + Vs (1 μM)): (56.3) %
- Control group (%) viable cells (MDA-231 cells; CD8 + Vs (2 μM)): (57.4) %
- Control group (%) viable cells (MDA-231 cells; CD8 + Vs (5 μM)): (55.3) %
